# Publication PMC8464048 (Nucleic Acids Research, 2021)
# Molecular target: T1, EcGlyRS-FL (heterotetrameric (αβ)2 glycyl-tRNA synthetase) (Escherichia coli, UniProt P00960+P00961)
# T1 construct: gene glyQ; full-length alpha (1-303) and full-length beta (1-689, C-terminal 6xHis), co-expressed in E. coli BL21(DE3); (αβ)2 heterotetramer
# T1 sequence (P00960 1-303): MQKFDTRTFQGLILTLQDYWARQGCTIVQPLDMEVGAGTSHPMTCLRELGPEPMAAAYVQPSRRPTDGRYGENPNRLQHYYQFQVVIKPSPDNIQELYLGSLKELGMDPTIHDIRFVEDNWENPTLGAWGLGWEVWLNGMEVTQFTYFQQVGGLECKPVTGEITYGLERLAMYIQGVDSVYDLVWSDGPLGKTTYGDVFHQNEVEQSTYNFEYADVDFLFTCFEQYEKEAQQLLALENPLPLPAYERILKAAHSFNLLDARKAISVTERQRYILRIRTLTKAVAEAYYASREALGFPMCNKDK
# T1 sequence (P00961 1-689): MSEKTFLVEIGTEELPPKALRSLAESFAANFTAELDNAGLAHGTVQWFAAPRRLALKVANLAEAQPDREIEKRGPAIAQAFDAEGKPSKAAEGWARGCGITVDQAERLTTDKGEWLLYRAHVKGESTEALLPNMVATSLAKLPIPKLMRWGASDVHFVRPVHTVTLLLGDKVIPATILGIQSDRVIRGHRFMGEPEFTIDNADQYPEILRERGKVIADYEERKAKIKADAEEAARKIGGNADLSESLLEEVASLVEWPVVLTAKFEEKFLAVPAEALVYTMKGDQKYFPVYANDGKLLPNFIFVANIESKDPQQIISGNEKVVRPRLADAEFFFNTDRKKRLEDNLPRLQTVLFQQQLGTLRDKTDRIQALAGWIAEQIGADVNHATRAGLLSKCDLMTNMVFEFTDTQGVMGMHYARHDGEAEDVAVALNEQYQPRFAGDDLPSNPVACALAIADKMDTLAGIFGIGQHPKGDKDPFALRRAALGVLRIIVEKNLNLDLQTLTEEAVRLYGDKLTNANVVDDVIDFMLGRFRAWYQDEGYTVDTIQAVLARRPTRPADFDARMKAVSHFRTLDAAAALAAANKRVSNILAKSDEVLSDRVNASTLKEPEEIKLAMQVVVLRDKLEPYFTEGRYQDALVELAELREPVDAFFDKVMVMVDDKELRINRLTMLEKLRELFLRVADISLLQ
# Assay: isothermal titration calorimetry, one-site fit
# Type: binding
structure (smiles),measurement,value
Nc1ncnc2c1ncn2[C@@H]1O[C@H](COP(=O)(O)OP(=O)(O)OP(=O)(O)O)[C@@H](O)[C@H]1O [ATP],Kd,~6 µM
